For assay [1], the system named is PAF-induced aggregation in washed rabbit platelets (WRPs). The note with it: cited from earlier work.
The subject of assay [2] is thrombin-induced aggregation in washed rabbit platelets (WRPs). The experiment in a line: Inhibition of thrombin-induced aggregation in washed rabbit platelets. The class given is cell-based. The note with it: washed rabbit platelets, mean ± SD; for IC50: read-out: IC50 (μM) towards Thrombin in WRPs. How it is done:
(§1) The biological experiments of PAF-induced platelet aggregation as well as the evaluation of the inhibitory effect of its synthetic compounds were performed according to thoroughly described protocols. The inhibitory effect of the starting materials (pqx = 2-(2′-pyridyl)quinoxaline, CrCl3 × 3H2O, MnCl2 × 4H2O, FeCl2 × 4H2O, CoCl2 × 6H2O, NiCl2 × 6H2O, CuCl2 × 2H2O, ZnCl2) and of the coordination compounds 1–7, towards PAF and thrombin related biological activities (aggregation experiments) in washed rabbit platelets (WRPs) was carried out according to previously described protocols. Briefly, in order to obtain the washed rabbit platelets (WRPs), platelet-rich plasma was washed on Ficoll–Paque cushions and adjusted to […] platelets/mL of Tyrode’s buffer, pH 7.2. The dilution of PAF was prepared using pyrogen-free 0.15 M NaCl containing 2.5 mg/mL of crystallized bovine serum albumin, required for dispersion of PAF. The compounds under investigation were firstly dissolved in the appropriate solvent that is: DMSO for pqx (0.010 M), H2O for CrCl3 × 3H2O (0.016 M), H2O for MnCl2 × 4H2O (0.004 M), DMSO-EtOH (4/1, v/v)) for FeCl2 × 4H2O (0.014 M), H2O for CoCl2 × 6H2O (0.010 M), H2O for NiCl2 × 6H2O (0.010 M), H2O for CuCl2 × 2H2O (0.008 M), H2O for ZnCl2 (0.013 M), DMSO for 1 (0.017 M), DMSO for 2 (0.010 M0, DMSO for 3 (0.004 M), DMSO for 4 (0.002 M), DMSO for 5 (0.003 M), DMSO-EtOH-H2O (25/1/1, v/v)) for 6 (0.006 M), DMSO for 7 (0.002 M) and aliquots of these solutions were then added in solutions (2.5 mg BSA/mL) of saline.
The experiment on the inhibitory effect of each compound of interest against the washed rabbit platelets (WRPs) aggregation was carried out as per the already described method. The platelets were from male New Zealand white rabbits (about 20), individually housed in stainless steel cages in an air-conditioned room (19 ± 1 °C, 55 ± 5% humidity on a 12/12 h artificial light/dark cycle). Blood samples were drawn from the main ear artery. Microliters of PAF in a final concentration of about 10^–10 M were added to the cuvette of the aggregometer, and the height of the platelet aggregation was monitored. The platelet aggregation induced by PAF, or thrombin was measured before (considered as 0% inhibition) and after the addition of various concentrations of the examined sample, creating a linear curve of percentage inhibition (ranging from 0 to 100%) versus different concentrations of the sample. From this curve, the concentration of the sample that inhibited 50% PAF-induced aggregation was calculated, and this value was defined as IC50 (Inhibitory concentration for 50% Inhibition). Dithiothreitol-insensitive PAF choline phosphotransferase, lyso-PAF:acetyl-CoA acetyltransferase and PAF-acetylhydrolase activity assays were performed on the homogenates of rabbit leukocytes while the activity of lipoprotein-associated phospholipase A2 was assessed on plasma as previously described. The experiments were performed in a model 400 vs. aggregometer of Chrono-Log (Havertown, PA, USA) coupled to a Chrono-Log recorder at 37 °C with constant stirring at 1200 rpm. The separation of platelets was performed with centrifugations in a 3L-R Heraeus Labofuge (Hvanau, Germany), a 400R Heraeus Labofuge and an RC-5B Sorvall (Newtown, CT, USA) refrigerated super speed centrifuge. Bovine serum albumin (BSA), PAF and analytical solvents for the biological assays were purchased from Sigma. Standard active thrombin was purchased from Sigma, St. Lewis, MO, USA. The measurements were performed in duplicates for each sample concentration in three different WRP preparations, in order to ensure reproducibility. All experiments were also followed by appropriate control tests of the solvent used (saline solution of BSA, DMSO aliquots in a saline solution of BSA-2.5 mg BSA/mL saline- or just in saline), in WRPs. […]

Assay [3] has as its system PAF-induced aggregation in washed rabbit platelets (WRPs). The experiment in a line: Inhibition of PAF-induced aggregation in washed rabbit platelets. It is filed as cell-based. The note with it: washed rabbit platelets; mean ± SD; read-out: IC50 (μM) towards PAF in WRPs. How it is done:
as §1, with “The inhibitory effect of the starting materials (pqx = 2-(2′-pyridyl)quinoxaline, CrCl3 × 3H2O, MnCl2 × 4H2O, FeCl2 × 4H2O, CoCl2 × 6H2O, NiCl2 × 6H2O, CuCl2 × 2H2O, ZnCl2) and of the coordination compounds 1–7, towards PAF and thrombin related biological activities (aggregation experiments) in washed rabbit platelets (WRPs) was carried out according to previously described protocols.” left out
The experiment on the inhibitory effect of each compound of interest against the washed rabbit platelets (WRPs) aggregation was carried out as per the already described method. The platelets were from male New Zealand white rabbits (about 20), individually housed in stainless steel cages in an air-conditioned room (19 ± 1 °C, 55 ± 5% humidity on a 12/12 h artificial light/dark cycle). Blood samples were drawn from the main ear artery. Microliters of PAF in a final concentration of about 10^–10 M were added to the cuvette of the aggregometer, and the height of the platelet aggregation was monitored. The platelet aggregation induced by PAF, or thrombin was measured before (considered as 0% inhibition) and after the addition of various concentrations of the examined sample, creating a linear curve of percentage inhibition (ranging from 0 to 100%) versus different concentrations of the sample. From this curve, the concentration of the sample that inhibited 50% PAF-induced aggregation was calculated, and this value was defined as IC50 (Inhibitory concentration for 50% Inhibition). Dithiothreitol-insensitive PAF choline phosphotransferase, lyso-PAF:acetyl-CoA acetyltransferase and PAF-acetylhydrolase activity assays were performed on the homogenates of rabbit leukocytes while the activity of lipoprotein-associated phospholipase A2 was assessed on plasma as previously described. The experiments were performed in a model 400 vs. aggregometer of Chrono-Log (Havertown, PA, USA) coupled to a Chrono-Log recorder at 37 °C with constant stirring at 1200 rpm. The separation of platelets was performed with centrifugations in a 3L-R Heraeus Labofuge (Hvanau, Germany), a 400R Heraeus Labofuge and an RC-5B Sorvall (Newtown, CT, USA) refrigerated super speed centrifuge. Bovine serum albumin (BSA), PAF and analytical solvents for the biological assays were purchased from Sigma. […] The measurements were performed in duplicates for each sample concentration in three different WRP preparations, in order to ensure reproducibility. All experiments were also followed by appropriate control tests of the solvent used (saline solution of BSA, DMSO aliquots in a saline solution of BSA-2.5 mg BSA/mL saline- or just in saline), in WRPs. In the aggregometer cuvette (250 to 500 μL) the overall amount of added DMSO, contained in the solution of the sample under study, is not higher than 2–3 μL. All results were expressed as mean ± standard deviation (SD). The t-test was employed to assess differences among the IC50 values of each metal complex against either the PAF- or thrombin-induced aggregation. Differences were statistically significant when the statistical p-value was smaller than 0.05.

For assay [4], the system named is HEK293T (human embryonic kidney cells). Kind of assay: MTT cell viability assay, HEK293T. It is filed as cell-based. The note with it: 48 h exposure, mean ± SD. How it is done:
(§2) In this report, cell viability tests were conducted in HEK293T and HeLa cancer cells by means of the colorimetric 3-(4,5-dimethylthiazol-2-yl)-2,5-diphenyl tetrazolium bromide (MTT) assay after exposure for 48 h. A HeLa cancer cell line was selected since it is widely used in cytotoxicity studies. For all complexes, a 10 mM stock solution in DMSO (H2O for cisplatin) was prepared and diluted appropriately to reach the final concentration reported in the Materials and Methods. The non-cancerous HEK293T cell line was used for comparison. The IC50 values of the first-row metal complexes, the pqx ligand and cisplatin, presented herein were calculated using a dose-response model, which was obtained from sigmoidal fitting of dose-response curves.
(§3) The HEK293T cell line (immortalized human embryonic kidney cells) was obtained from the Biomedical Research Foundation Academy of Athens (BRFAA), Athens, Greece and the HeLa cell line (cervical cancer cells) was obtained from the National Centre For Scientific Research Demokritos (NCSR Demokritos), Athens, Greece.
(§4) Pqx metal complexes were diluted in stock solutions of 10 mM in dimethyl sulfoxide (DMSO). A similar concentration of cisplatin dissolved in H2O was used. HEK293T and HeLa cells were cultured in Dulbecco’s modified Eagle’s medium (DMEM) with high glucose (Biosera, Nuaille, France) supplemented with 10% fetal bovine serum at 37 °C and 5% CO2. Cells were seeded in sterile tissue culture 96-well plates (SPL Life Science, Pochon, Republic of Korea) at a density of 3000 cells per well. After 24 h, the medium was removed and replaced with fresh media containing various concentrations (0.01 μΜ, 0.1 μΜ, 1 μΜ, 10 μΜ, 25 μΜ, 40 μΜ, 55 μΜ, 70 μΜ, 85 μΜ and 100 μΜ) of the compounds to be tested and was further incubated for 48 h at 37 °C. Dimethyl sulfoxide (DMSO) was used as a vehicle at ≤1%. To measure cytotoxicity, a culture medium containing the compounds (or DMSO) was removed, and 100 μL of 0.5 mg/mL MTT reagent (Applichem, Darmstadt, Germany) diluted in DMEM was added to the cells for 3 h at 37 °C. After 3 h incubation in identical conditions, MTT was removed and 200 μL of DMSO was added. Absorbance values of formazan were measured at 540 nm using a BioTek Synergy H1 microplate reader (Agilent, Santa Clara, CA, USA). All compounds were tested in triplicate. The results were statistically analyzed using the nonlinear regression by GraphPad PRISM (Version 9).
A general note: Tetrazolium assays rely on reduction of a dye to a coloured formazan, in cell work by metabolically active cells.

In assay [5] the test system is HeLa cells (cervical cancer cells). Kind of assay: MTT cell viability assay, HeLa. It is filed as cell-based, human. The settings on record: 48 h exposure, mean ± SD. On the procedure: as §2, §3, §4
The subject of assay [6] is thrombin-induced aggregation in washed rabbit platelets (WRPs). The settings on record: cited from earlier work.
[7] abbreviates: known PAF antagonists quoted for comparison, read-out: IC50 against the PAF-induced aggregation in WRPs.
[8] abbreviates: earlier pqx complexes, ref [17],[25], read-out: IC50 against the PAF-induced aggregation.

Entries after “also recorded” stand apart in the source; their conditions may differ. Like-named read-outs stand apart in the source and are kept apart here.

Turning to `C[C@@H]1C(=O)O[C@H]2C[C@@]34[C@H]5C[C@@H](C(C)(C)C)[C@]36[C@@H](OC(=O)[C@@H]6O)O[C@@]4(C(=O)O5)[C@]21O` [BN 52020], the half-inhibitory concentration (IC50) (usually the point on the concentration scale where inhibition reaches its midpoint) in assay [1] (setting [7]) is 3.6 µM.

Take `CC1C(=O)OC2C(O)C34C5CC(C(C)(C)C)C36C(OC(=O)C6O)OC4(C(=O)O5)C12O` (stereo not shown) [BN 52021]: the IC50 in assay [1] (setting [7]) was 9.7 µM.

Take `O.O.O.O.O.O.[Cl-].[Cl-].[Co+2]` [CoCl2 × 6H2O]: in assay [1] (washed rabbit platelets, ref [60]), the “IC50 (μM) towards PAF in WRPs” value is “negligible effects; also recorded: no inhibition ^1”. In addition, in assay [2], the “IC50 (μM) towards Thrombin in WRPs” value is “no inhibition”.

`[Cl][Cr]([Cl])[Cl]` [CrCl3 × 6H2O, reference compound]: the IC50 in assay [3] stood at 537 ± 59 µM; in assay [2], 611 ± 67 µM.

With `[Cl][Cu][Cl]` [CuCl2 × 2H2O, reference compound], the IC50 is 22 ± 3 µM in assay [3] and 3.23 ± 0.39 µM in assay [2].

Take `[Cl][Fe][Cl]` [FeCl2 × 4H2O, reference compound]: the IC50 worked out at 261 ± 37 µM in assay [3] and 13.8 ± 1.93 µM in assay [2].

For the compound `[Cl][Mn][Cl]` [MnCl2 × 4H2O, reference compound], the IC50 in assay [3] turned out to be 302 ± 30 µM; in assay [2] it was 466 ± 47 µM.

With `[Cl][Ni][Cl]` [NiCl2 × 6H2O, reference compound], the results for the IC50 in assay [3] and in assay [2] were 30 ± 2.7 µM and 4.9 ± 0.44 µM, respectively.

For the compound `[Cl-].[Cl-].[Zn+2]` [ZnCl2, reference compound], the IC50 in assay [3] is 30 ± 3 µM; in assay [2], 41.4 ± 3.7 µM.

For the compound `N.N.[Cl][Pt][Cl]` [cisplatin, reference compound], the IC50 in assay [1] (ref [25], read-out: IC50 against PAF) is 0.55 µM; in assay [4] it was 4.44 ± 1.29 µM; in assay [5], 12.8 ± 1.48 µM.

As for `Cc1cncc(CN2CCC(=C3c4ccc(Cl)cc4CCc4cccnc43)CC2)c1` [rupatadine], the IC50 in assay [1] (setting [7]) was 0.25 µM.

Take [Rh(cod)(pqx)]Cl: the IC50 in assay [1] (setting [8]) was 0.015 µM.

Turning to [Ru(dcbpyH2)2 (pqx))](NO3)2, the IC50 in assay [1] (setting [8]) was 0.18 µM. In addition, the “activity against thrombin” value in assay [6] (known Ru(II)-pqx complex, ref [17]) is “inactive”.

Turning to cis-[Ru(bpy)2(dcbpyH2)](PF6)2, in assay [6] (Ru(II) thrombin inhibitors, ref [30], read-out: IC50 against thrombin), the IC50 was 4.5 µM.

mer-[Rh(pqx)Cl3(MeOH)]: the IC50 in assay [1] (setting [8]) was 0.125 µM.

The values are drawn from PMC10574351, “First-Row Transition Metal Complexes Incorporating the 2-(2′-pyridyl)quinoxaline Ligand (pqx), as Potent Inflammatory Mediators: Cytotoxic Properties and Biological Activities against the Platelet-Activating Factor (PAF) and Thrombin” (Molecules, 2023).
